Reference: patent US7834141B1, “Non-mammalian GnRH analogs and uses thereof in tumor cell growth regulation and cancer therapy” (priority 2000, dated 2010)
Where two headings read alike, the source gives them in different places. Blank lines part the entries; values can stand above or below the compound they belong to. Where a SMILES comes first, the peptide text is derived from it.

Key:
[1] = system: MCF-7 breast cancer cells; assay: MCF-7 breast cancer cell culture viability, Alamar Blue assay; type: cell-based, human; details: for inhibition of cell proliferation (cell viability, Alamar Blue): MCF-7, 24 hours of incubation, dose-response; for inhibition of cell proliferation: MCF-7, 48 hours of incubation
Method: This system allows for replicated extended activity studies.
The bio-potency studies were done with a MCF-7 breast cancer cell culture system and the cell viability as a measure of survival was assessed using the Alamar Blue assay. The percent difference in the Alamar Blue optical density (OD) readings at 570 and 600 nm in the treated and untreated controls was determined. […] A dose-response study in quadruplicate cultures was performed. Cell viability was assessed after 24 and 48 hours of incubation with the activity agent.

[2] = system: chorionic post-proline peptidase; assay: Competitive inhibition of mammalian GnRH degradation by chorionic post-proline peptidase (enzymatic activity assay, RIA of remaining substrate); details: for relative potency of inhibition of chorionic post-proline peptidase activity compared to that for GnRH: substrate mammalian GnRH, GnRH = 1
Method: (§1) Using the incubation system developed for chorionic post-proline peptidase activity, the degradation of GnRH was tested. Each of these analogs (SEQ ID NO: 2, SEQ ID NO: 4 and SEQ ID NO: 7) were first studied for their ability to act as a competitive inhibitor of GnRH for chorionic post-proline peptidase activity using the enzymatic activity assay as described previously (103). […] The reaction was stopped by heating at 85° C. for 10 minutes. […] The product formed, i.e. the N-terminal nonapeptide of GnRH, was calculated by subtraction, and its inverse plotted against the inverse of the original substrate concentrations to determine the Ks of the competition. The Ki was determined by plotting the inverse of the product that formed versus the inhibitor used.

[3] = system: GnRH receptors on the cells of MCF-7 breast cancer cells; assay: Competitive binding of I^125-D-Arg(6)-Chicken II GnRH-aza-Gly(10)-amide to MCF-7 breast cancer cells; parameters: species or system human; details: for competitive inhibition of I^125-D-Arg(6)-Chicken II GnRH-aza-Gly(10)-amide binding (rank of potency): MCF-7 cells, 24 hours at room temperature; for receptor potency (in words): receptor test not given
Method: GnRH receptors on the cells of MCF-7 breast cancer cells were studied. The cells were plated on 96 wells and grown to confluency in base medium (M3D:Fetal Bovine Serum [9:1]). Prior to the experiment the cells were down shifted to M3D:Fetal Bovine Serum [99:1] and then to serum-free medium. […] Addition of enzyme inhibitors of the endogenous post-proline peptidase and other peptidases were used as well as agents for receptor stabilization. Receptor bound label was separated by centrifugation. The binding of the non-mammalian GnRH analog and its ability to regulate the tumor cells' GnRH receptor was compared. […] This was followed by Buserilin. […] This indicated the high innate affinity of this isoform of GnRH for the tumor GnRH receptor. It is believed by Applicants that the same or similar results could be obtained using other non-mammalian GnRH isomers or analogs with similar amino acid structure as Chicken II GnRH such as but not limited to Salmon GnRH, Herring GnRH, Catfish GnRH, or Dogfish GnRH.

[4] = system: MCF-7 breast cancer cells; assay: Degradation of GnRH and analogs by tumor tissue cells, with or without peptidase inhibitors; type: in vitro ADME, human
From the text: Post-Proline Peptidase Stability Studies: As mentioned earlier, the post-proline peptidase is important in actively degrading peptides that contain a proline residue. GnRH is such a peptide. Initially the enzymatic activity of the tumor cell was studied. Tumor tissue cells and their spent media were studied for enzyme activity. In particular, examination was made for the degradation of GnRH both with and without specific post-proline and endopeptidase activity inhibitors to determine the specificity of the tumor enzymatic activity.
Chorionic post-proline peptidase is a peptidase with high specificity for the degradation of GnRH at the proline-glycine bond, but can also degrade other GnRH species containing this bond.

[5] = system: chorionic post-proline peptidase
Method: as §1

Compound: CCNC(=O)[C@@H]1CCCN1C(=O)[C@H](CCCNC(=N)N)NC(=O)[C@H](CC(C)C)NC(=O)[C@@H](COC(C)(C)C)NC(=O)[C@H](Cc1ccc(O)cc1)NC(=O)[C@H](CO)NC(=O)[C@H](Cc1c[nH]c2ccccc12)NC(=O)[C@H](Cc1cnc[nH]1)NC(=O)[C@@H]1CCC(=O)N1 [Buserilin]
inhibition of cell proliferation (cell viability, Alamar Blue) [1]: totally inactive
degradation by chorionic post-proline peptidase (in words) [2]: competitively inhibited the degradation of mammalian GnRH

degradation by chorionic post-proline peptidase (in words) [2]: resistant to degradation
Compound: N=C(N)NCCC[C@@H](NC(=O)[C@H](Cc1c[nH]cn1)NC(=O)[C@H](CO)NC(=O)[C@H](Cc1c[nH]c2ccccc12)NC(=O)[C@H](Cc1c[nH]cn1)NC(=O)[C@@H]1CCC(=O)N1)C(=O)N[C@@H](Cc1c[nH]c2ccccc12)C(=O)N[C@@H](Cc1ccc(O)cc1)C(=O)N1CCC[C@H]1C(=O)NNC(N)=O [D-Arg(6)-Chicken II GnRH-aza-Gly(10)-amide] (HELM PEPTIDE1{[Glp].H.W.S.H.[dR].W.Y.P.[O=C(NN[*:1])[*:2]].[am]}$$$$V2.0)
binding of I^125-labelled analog to MCF-7 breast cancer cells ([3]; 24 hours of incubation, no exogenous GnRH): specifically bound the MCF-7 breast cancer cells
competitive inhibition of I^125-D-Arg(6)-Chicken II GnRH-aza-Gly(10)-amide binding (rank of potency) [3]: greatest potency
receptor potency (in words) [3]: increased receptor potency
inhibition of cell proliferation (cell viability, Alamar Blue) [1]: positive dose-related activity
inhibition of cell proliferation at 10^−5 M ([1]; MCF-7, 24 hours, 10^−5 M): markedly active
inhibition of cell proliferation [1]: equally as potent as at 24 hours

Compound: CCNC(=O)[C@@H]1CCCN1C(=O)[C@H](CCCNC(=N)N)NC(=O)[C@H](CC(C)C)NC(=O)[C@@H](CC(C)C)NC(=O)[C@H](Cc1ccc(O)cc1)NC(=O)[C@H](CO)NC(=O)[C@H](Cc1c[nH]c2ccccc12)NC(=O)[C@H](Cc1c[nH]cn1)NC(=O)[C@@H]1CCC(=O)N1 [Leuprolide]
inhibition of cell proliferation (cell viability, Alamar Blue) [1]: totally inactive

Compound: CC[C@H](C)[C@H](N)C1=N[C@H](C(=O)N[C@@H](CC(C)C)C(=O)N[C@H](CCC(=O)O)C(=O)N[C@H](C(=O)N[C@H]2CCCCNC(=O)[C@H](CC(N)=O)NC(=O)[C@@H](CC(=O)O)NC(=O)[C@H](Cc3cnc[nH]3)NC(=O)[C@@H](Cc3ccccc3)NC(=O)[C@H]([C@@H](C)CC)NC(=O)[C@@H](CCCN)NC2=O)[C@@H](C)CC)CS1 [bacitracin] (HELM PEPTIDE1{[CC[C@H](C)[C@H](N)C1=N[C@H](C(=O)[*:2])CS1].L.[dE].I.K.[NCCC[C@@H](N[*:1])C(=O)[*:2]].I.[dF].H.[dD].N}$PEPTIDE1,PEPTIDE1,5:R3-11:R2$$$V2.0)
inhibition of the degradation of mammalian GnRH in tumor cell extracts ([4]; specific inhibitors of post-proline peptidase): inhibited

degradation by chorionic post-proline peptidase (in words) [2]: degraded with reduced activity
potency as competitor for chorionic post-proline peptidase compared to GnRH (in words) [2]: three fold less potent than GnRH
relative potency of inhibition of chorionic post-proline peptidase activity compared to that for GnRH [2]: 0.6
Compound: Antide

Compound: Im-btl-D-His(6)-GnRH-ethylamide
receptor potency (in words) [3]: reduced receptor potency

Compound: Mammalian GnRH: mammalian gonadotropin releasing hormone decapeptide
competitive inhibition of I^125-D-Arg(6)-Chicken II GnRH-aza-Gly(10)-amide binding (rank of potency) [3]: weakest competitor
degradation of mammalian GnRH by the tumor tissue cells ([4]; after overnight incubation): ~100%
inhibition of cell proliferation [1]: totally ineffective
degradation by chorionic post-proline peptidase (in words) [5]: actively degraded

relative potency of inhibition of chorionic post-proline peptidase activity compared to that for GnRH [2]: 1.5
Compound: OH-Pro(9)-GnRH

Compound: des-Gly(10), D-Trp(6)-GnRH ethylamide
degradation by chorionic post-proline peptidase (in words) [2]: competitively inhibited the degradation of mammalian GnRH

Compound: des-Gly(10)-D-Leu(6)-GnRH ethylamide
degradation by chorionic post-proline peptidase (in words) [2]: competitively inhibited the degradation of mammalian GnRH

Compound: des-Gly(10)-GnRH ethylamide
degradation by chorionic post-proline peptidase (in words) [2]: competitively inhibited the degradation of mammalian GnRH
